This note sets out measurements from ChEMBL document CHEMBL1126186 (J Med Chem, 1992).

For the experiment, the target named is Glutamate receptor ionotropic, NMDA 1 (Rattus norvegicus, UniProt P35439). The experiment is described as follows: Compound was evaluated for its ability to displace [3H]TCP from PCP N-methyl-D-aspartate glutamate receptor in rat brain. The format is tissue-based.
As usually defined, the Ki is a measure of affinity in units of concentration, obtained from inhibition or displacement. `c1ccc([C@@]2(N3CCCCC3)C[C@H]3C[C@H]3C2)cc1`: affinity was put at a Ki of 711 nM.

Take `c1ccc([C@]2(N3CCCCC3)C[C@H]3C[C@H]3C2)cc1`: the Ki worked out at 644 nM.

The compound `c1ccc([C@]2(N3CCCCC3)CC[C@@H]3C[C@@H]32)cc1` showed a Ki of 29000 nM.

`c1ccc(C2(N3CCCCC3)CCCCC2)cc1` [PHENCYCLIDINE]: the Ki stood at 64.5 nM.

Consider `c1ccc([C@]2(N3CCCCC3)CC[C@H]3C[C@H]32)cc1` (racemic), for which the Ki stood at 582 nM.

For `c1ccc([C@@]2(N3CCCCC3)CC[C@H]3C[C@H]32)cc1`, affinity was put at a Ki of 8220 nM.
